Laboratory results taken from paper PMC6010071, “Blocking oestradiol synthesis pathways with potent and selective coumarin derivatives” (Journal of Enzyme Inhibition and Medicinal Chemistry, 2018).

Experiments:
[1] = target: T1, Aromatase (CYP19A1), human placental microsomes (Homo sapiens, UniProt P11511); experiment: Aromatase activity, [3H]-H2O release from [3H]-androstenedione; assay type: biochemical; settings: 50 nM [3H]-androstenedione; inhibitor 60–1000 nM; read-out: Aromatase inhibition ∼ pIC50 (converted)
T1 construct: by using human placental microsomes; from tissue; host or cells: human placental microsomes
T1 sequence (P11511 1-503): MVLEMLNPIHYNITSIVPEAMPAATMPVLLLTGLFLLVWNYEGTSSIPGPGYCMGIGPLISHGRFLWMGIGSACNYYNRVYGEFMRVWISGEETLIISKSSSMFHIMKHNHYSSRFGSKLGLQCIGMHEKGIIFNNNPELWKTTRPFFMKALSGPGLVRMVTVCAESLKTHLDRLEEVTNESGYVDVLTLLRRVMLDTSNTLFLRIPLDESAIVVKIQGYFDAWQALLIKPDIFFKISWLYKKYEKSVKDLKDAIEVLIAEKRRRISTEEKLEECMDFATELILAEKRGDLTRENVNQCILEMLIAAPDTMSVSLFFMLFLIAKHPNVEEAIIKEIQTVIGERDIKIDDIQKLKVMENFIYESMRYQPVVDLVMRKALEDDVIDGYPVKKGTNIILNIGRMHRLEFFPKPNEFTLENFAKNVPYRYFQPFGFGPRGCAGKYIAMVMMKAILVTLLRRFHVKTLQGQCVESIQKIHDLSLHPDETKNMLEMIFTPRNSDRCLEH
Method: Aromatase (CYP19A1) activity was measured as described previously[22] by using human placental microsomes and 50 nM [3H]-androstenedione as a substrate and inhibitor concentrations in the range of 60–1000 nM. Aromatase activities were measured as released [3H]-H2O in Optiphase Hisafe 2 scintillation liquid (Perkin Elmer, Waltham, MA) with a Wallac 1450 MicroBeta Trilux scintillation counter (Perkin Elmer, Waltham, MA). As a positive control for aromatase inhibition, 1 µM finrozole (generous gift from Olavi Pelkonen, University of Oulu, Finland) was used.

[2] = target: T2, recombinant human HSD2 (Homo sapiens, UniProt P37059); experiment: HSD2 inhibition, HPLC assay of [3H]-E2 to [3H]-E1 conversion; assay type: biochemical; settings: read-out: HSD2 inhibition at 1 µM
T2 construct: made in house; host or cells: Sf9 insect cells
T2 sequence (P37059 1-387): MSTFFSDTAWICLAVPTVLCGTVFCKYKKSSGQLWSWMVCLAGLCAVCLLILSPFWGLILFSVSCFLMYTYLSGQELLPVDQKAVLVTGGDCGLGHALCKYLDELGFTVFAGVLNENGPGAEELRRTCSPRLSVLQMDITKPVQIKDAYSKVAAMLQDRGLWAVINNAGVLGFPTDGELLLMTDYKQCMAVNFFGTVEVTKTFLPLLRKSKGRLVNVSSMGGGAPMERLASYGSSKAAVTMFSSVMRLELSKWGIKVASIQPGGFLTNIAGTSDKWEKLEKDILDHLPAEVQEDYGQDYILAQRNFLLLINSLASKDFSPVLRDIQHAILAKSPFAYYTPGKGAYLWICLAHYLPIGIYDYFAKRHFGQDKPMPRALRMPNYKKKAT
Method: The inhibition was determined by HPLC using recombinant human HSD1 and HSD2 proteins as described in a prior study. In short, recombinant human HSD1 and HSD2 were produced in Sf9-insect cells. […]. After incubation, the reaction was stopped by addition of […] 10% trichloroacetic acid per sample. After incubation the substrate and the product of enzymatic conversion [3H]-E1 and [3H]-E2 were separated and quantified by HPLC (Alliance 2790, Waters, Milford, MA) connected to an online counter (Packard Flow Scintillation Analyser; Perkin Elmer Inc., Waltham, […]). The ratio of [3H]-E1 converted to [3H]-E2 or vice versa determines the conversion percentage of the samples. Inhibition was measured in three concentrations (100 nM, 1, and 5 µM) in order to follow the progression of inhibition efficiencies. Inhibition efficiencies of the tested inhibitors were calculated by comparing the conversion percentages of the samples including inhibitors with those of conversion controls (without inhibitors).

[3] = target: T3, ERα (Homo sapiens, UniProt P03372); experiment: PolarScreen ER Alpha Competitor Assay (fluorescence polarisation); assay type: binding; settings: for IC50: 25 nM ERα, 4.5 nM fluormone, read-out: ER binding pIC50 (converted)
T3 construct: purchased Life Technologies, Carlsbad, CA
T3 sequence (P03372 1-595): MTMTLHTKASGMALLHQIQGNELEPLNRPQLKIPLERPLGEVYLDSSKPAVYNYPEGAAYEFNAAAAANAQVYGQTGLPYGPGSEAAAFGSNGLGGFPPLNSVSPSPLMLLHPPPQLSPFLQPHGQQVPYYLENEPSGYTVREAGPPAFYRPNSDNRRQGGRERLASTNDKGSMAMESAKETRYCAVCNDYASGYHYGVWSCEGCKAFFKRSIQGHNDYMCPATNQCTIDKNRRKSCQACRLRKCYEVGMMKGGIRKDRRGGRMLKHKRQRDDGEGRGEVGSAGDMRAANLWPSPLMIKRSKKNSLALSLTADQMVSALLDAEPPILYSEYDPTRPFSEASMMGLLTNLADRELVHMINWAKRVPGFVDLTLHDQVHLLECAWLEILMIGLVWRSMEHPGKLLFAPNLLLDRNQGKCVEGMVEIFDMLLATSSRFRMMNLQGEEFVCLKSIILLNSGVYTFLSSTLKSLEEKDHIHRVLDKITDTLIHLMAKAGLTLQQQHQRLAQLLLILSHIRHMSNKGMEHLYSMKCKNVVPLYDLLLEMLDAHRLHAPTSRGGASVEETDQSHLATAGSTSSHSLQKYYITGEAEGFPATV
Method: The pIC50 values of the molecules (Table 1) were measured using green PolarScreen™ ER Alpha Competitor Assay (Life Technologies, Carlsbad, CA) kit, following the protocol provided by the manufacturer as previously described. The final concentration of the molecules ranged between 0.0007 and 10,000 nM in the prepared dilution series. […] After mixing the assay plate, it was incubated for 2 h at the room temperature.

SMILES: O=c1oc2ccc(Cl)cc2cc1-c1cccc(O)c1 [Compound 4, 6-chloro-3–(3-hydroxyphenyl)-2H-chromen-2-one]
- IC50 [1]: > 1000 nM
- inhibition at 1 µM [2]: 16%
- IC50 [3]: > 10000 nM

SMILES: O=c1oc2ccccc2cc1-c1cccc(O)c1 [Compound 3, 3–(3-hydroxyphenyl)-2H-chromen-2-one]
- IC50 [1]: > 1000 nM
- inhibition at 1 µM [2]: 42%
- IC50 [3]: > 10000 nM

SMILES: COc1ccc(-c2cc3cccc(O)c3oc2=O)cc1 [Compound 1, 8-hydroxy-3–(4-methoxyphenyl)-2H-chromen-2-one]
- IC50 [1]: > 1000 nM
- inhibition at 1 µM [2]: 27%
- IC50 [3]: > 10000 nM

SMILES: O=c1oc2ccc(O)cc2cc1-c1ccc(O)cc1 [Compound 2, 6-hydroxy-3–(4-hydroxyphenyl)-2H-chromen-2-one]
- IC50 [1]: > 1000 nM
- inhibition at 1 µM [2]: 7%
- IC50 [3]: > 10000 nM

SMILES: COc1ccc2cc(-c3ccc(O)c(F)c3)c(=O)oc2c1 [Compound 6, 3–(3-fluoro-4-hydroxyphenyl)-7-methoxy-2H-chromen-2-one]
- IC50 [1]: > 1000 nM
- inhibition at 1 µM [2]: 31%
- ER inhibition (in words) [3]: reasonable ER inhibition
- IC50 [3]: 708 nM

SMILES: COc1ccc2oc(=O)c(-c3ccc(O)c(F)c3)cc2c1 [Compound 7, 3–(3-fluoro-4-hydroxyphenyl)-6-methoxy-2H-chromen-2-one]
- IC50 [1]: > 1000 nM
- inhibition at 1 µM [2]: 13%
- IC50 [3]: > 10000 nM
